The target in this test is T1, STAT3 (Homo sapiens, UniProt P40763).
T1 construct: GST-STAT3
The experiment in a line: TR-FRET displacement of fluorescent phosphopeptide (5-FAM-G(pY)LPQTVC-NH2) from GST-STAT3. The format is binding. In general terms: TR-FRET usually uses a lanthanide donor and a delayed reading to cut background.

T1 sequence (P40763 2-770): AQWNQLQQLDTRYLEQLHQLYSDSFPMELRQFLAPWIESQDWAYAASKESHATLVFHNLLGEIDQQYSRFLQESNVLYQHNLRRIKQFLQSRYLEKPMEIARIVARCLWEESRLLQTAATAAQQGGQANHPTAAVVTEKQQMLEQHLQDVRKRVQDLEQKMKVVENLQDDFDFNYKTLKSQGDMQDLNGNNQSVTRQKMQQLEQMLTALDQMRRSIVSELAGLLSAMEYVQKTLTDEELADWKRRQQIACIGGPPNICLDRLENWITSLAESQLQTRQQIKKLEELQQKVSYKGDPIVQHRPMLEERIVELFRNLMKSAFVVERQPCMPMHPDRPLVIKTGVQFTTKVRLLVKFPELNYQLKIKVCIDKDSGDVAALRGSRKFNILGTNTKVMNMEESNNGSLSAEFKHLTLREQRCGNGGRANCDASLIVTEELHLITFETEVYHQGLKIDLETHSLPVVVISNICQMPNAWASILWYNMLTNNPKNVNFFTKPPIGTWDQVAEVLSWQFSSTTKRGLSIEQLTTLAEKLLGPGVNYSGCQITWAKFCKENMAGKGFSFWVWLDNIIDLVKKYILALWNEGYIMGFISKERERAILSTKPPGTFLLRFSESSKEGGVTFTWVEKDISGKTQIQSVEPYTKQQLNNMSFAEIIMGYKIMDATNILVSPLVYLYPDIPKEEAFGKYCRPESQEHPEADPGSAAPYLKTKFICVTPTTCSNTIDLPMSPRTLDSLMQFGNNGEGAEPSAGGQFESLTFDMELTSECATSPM

One may read the IC50 as the midpoint of a concentration-inhibition curve. High values mean weaker potency in that assay, low ones greater potency in that assay. Substance S3I-1757 came in with a half-inhibitory concentration (IC50) of 62.1 ± 6.1 µM.

Values taken from article PMC6667205, “Antitumor activity of novel pyrazole-based small molecular inhibitors of the STAT3 pathway in patient derived high grade glioma cells” (PLoS ONE, 2019).
